Measured values from ChEMBL document CHEMBL1201862, “PubChem BioAssay data set” (2004).
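Step 1: Grow cells in 96-well plates. Step 2: Expose to compound for 48 hours at 5 concentrations. Step 3: Interpolate endpoints linearly; if unreached, use highest concentration. GI50 marks 50% less growth.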 Active and inactive are the calls of the source. Rule as the data show it: active = GI50 up to about 1.1 µM and inactive = higher.

Assays:
Test in all cases: inhibition of tumour cell growth, NCI panel, 48 h
HOP-92 = test system: HOP-92
NCI/ADR-RES = test system: NCI/ADR-RES
MCF7 = test system: MCF7
KM-20L2 = test system: KM-20L2
SNB-19 = test system: SNB-19
A498 = test system: A498
MOLT-4 = test system: MOLT-4
NCI-H226 = test system: NCI-H226
HCC 2998 = test system: HCC 2998
SNB-78 = test system: SNB-78
SK-MEL-28 = test system: SK-MEL-28
SN12C = test system: SN12C
M14 = test system: M14
T47D = test system: T47D
PC-3 = test system: PC-3
DU-145 = test system: DU-145
BT-549 = test system: BT-549
MDA-N = test system: MDA-N
Hs-578T = test system: Hs-578T
MDA-MB-435 = test system: MDA-MB-435

Measured: GI50

CCCSc1nc(COC(=O)NC)c(COC(=O)NC)n1C
inactive: HOP-92 > 71 µM | NCI/ADR-RES > 100 µM | MCF7 47.6 µM | KM-20L2 > 100 µM | SNB-19 > 100 µM | A498 > 62.7 µM | MOLT-4 27.7 µM | NCI-H226 > 100 µM | HCC 2998 > 100 µM | SNB-78 > 80.5 µM

CC#C[C@@]1(O)CCCC[C@@H]1O
inactive: SK-MEL-28 > 100 µM | HOP-92 > 100 µM | SN12C > 100 µM | KM-20L2 > 100 µM | SNB-19 > 100 µM | A498 > 100 µM | M14 > 100 µM | MOLT-4 > 100 µM | NCI-H226 > 100 µM | HCC 2998 > 100 µM | SNB-78 > 100 µM

CC(=O)c1cccc(NC(=O)C(=O)C(C(=O)c2ccccc2F)C2OC(=O)c3ccccc32)c1 (stereo not drawn)
inactive: SK-MEL-28 50.9 µM | HOP-92 > 100 µM | SN12C 27.1 µM | KM-20L2 40.2 µM | SNB-19 32.1 µM | A498 91.6 µM | M14 92.7 µM | MOLT-4 22.8 µM | NCI-H226 19.1 µM | HCC 2998 24.1 µM | SNB-78 12.5 µM

CN(/N=C/c1cccc2cccnc12)c1ccc([N+](=O)[O-])cc1[N+](=O)[O-]
inactive: T47D 23.1 µM | SK-MEL-28 > 88.1 µM | HOP-92 14.8 µM | PC-3 55 µM | NCI/ADR-RES 39.8 µM | SN12C 46.1 µM | MCF7 40.8 µM | DU-145 65.5 µM | KM-20L2 > 100 µM | SNB-19 11.3 µM | BT-549 21.3 µM | A498 17.4 µM | M14 54.7 µM | MDA-N > 100 µM | MOLT-4 > 100 µM | NCI-H226 24 µM | HCC 2998 71 µM | Hs-578T 9.71 µM | MDA-MB-435 > 100 µM | SNB-78 18.4 µM

C/C(=C/c1c(C)[nH]c(=O)[nH]c1=O)C(=O)O
inactive: SK-MEL-28 > 1370 µM | NCI/ADR-RES > 1370 µM | SN12C > 1370 µM | MCF7 > 1370 µM | KM-20L2 > 1370 µM | SNB-19 > 1370 µM | A498 > 1370 µM | MOLT-4 > 1370 µM | NCI-H226 > 1370 µM | HCC 2998 > 1370 µM | SNB-78 > 1370 µM

O=C1C=C(Br)c2c(-c3ccccc3)oc3cccc1c23
inactive: T47D 6.21 µM | SK-MEL-28 > 93.5 µM | HOP-92 25.4 µM | PC-3 > 100 µM | NCI/ADR-RES 48 µM | SN12C > 88.1 µM | MCF7 2.62 µM | DU-145 31.6 µM | KM-20L2 > 100 µM | SNB-19 42.1 µM | BT-549 > 100 µM | A498 > 75.7 µM | M14 54.5 µM | MDA-N 18.4 µM | MOLT-4 > 41.5 µM | NCI-H226 > 80.9 µM | HCC 2998 99.8 µM | Hs-578T 29.3 µM | MDA-MB-435 17.1 µM | SNB-78 35.6 µM
